Source: PubChem BioAssay (NCI)
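Briefly, cells in 96-well plates were exposed to five compound concentrations for 48 h, and endpoints were estimated by linear interpolation. GI50 marks 50% less growth. The concentration for full growth arrest is given as TGI.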

Legend:
Assay in all cases: NCI anticancer screen, dose series, 48 h
[1] = test system: NCI-H522 lung
[2] = test system: NCI-H23 lung
[3] = test system: M14 melanoma
[4] = test system: LOX IMVI melanoma
[5] = test system: OVCAR-4 ovarian
[6] = test system: U251 CNS
[7] = test system: HOP-92 NSCLC
[8] = test system: MDA-MB-231 breast
[9] = test system: OVCAR-5 ovarian
[10] = test system: SNB-19 CNS
[11] = test system: SF-539 CNS
[12] = test system: BT-549 breast
[13] = test system: TK-10 renal
[14] = test system: HS 578T breast
[15] = test system: SN12C renal
[16] = test system: NCI-H460 lung
[17] = test system: SW-620 colon
[18] = test system: T-47D breast
[19] = test system: SNB-75 CNS
[20] = test system: MCF7 breast
[21] = test system: SK-MEL-2 melanoma
[22] = test system: UACC-62 melanoma
[23] = test system: RXF 393 renal
[24] = test system: UO-31 renal
[25] = test system: HT29 colon
[26] = test system: OVCAR-8 ovarian
[27] = test system: PC-3 prostate
[28] = test system: SK-MEL-5 melanoma
[29] = test system: CCRF-CEM leukemia
[30] = test system: MDA-MB-435
[31] = test system: EKVX NSCLC
[32] = test system: A498 renal
[33] = test system: K-562 leukemia
[34] = test system: KM12 colon
[35] = test system: NCI/ADR-RES ovarian
[36] = test system: IGROV1 ovarian
[37] = test system: MOLT-4 leukemia
[38] = test system: HCC-2998 colon
[39] = test system: ACHN renal
[40] = test system: A549 NSCLC
[41] = test system: SK-MEL-28 melanoma
[42] = test system: HCT-15 colon
[43] = test system: UACC-257 melanoma
[44] = test system: MALME-3M melanoma
[45] = test system: NCI-H226 lung
[46] = test system: SK-OV-3 ovarian
[47] = test system: 786-0 renal
[48] = test system: HOP-62 NSCLC
[49] = test system: SF-268 CNS
[50] = test system: SF-295 CNS
[51] = test system: DU-145 prostate
[52] = test system: COLO 205 colon

Compound: Cc1cc(N2CCOCC2)nc(N(CCNc2ccnc3cc(Cl)ccc23)Cc2ccco2)n1
- GI50 [1]: 1.84 µM
- TGI [1]: 4.75 µM
- GI50 [2]: 5.58 µM
- TGI [2]: 35.4 µM
- GI50 [3]: 2.34 µM
- TGI [3]: 6.43 µM
- GI50 [4]: 2.03 µM
- TGI [4]: 4.91 µM
- GI50 [5]: 2.4 µM
- TGI [5]: 8.12 µM
- GI50 [6]: 3.21 µM
- TGI [6]: 12.4 µM
- GI50 [7]: 2.1 µM
- TGI [7]: 8.19 µM
- GI50 [8]: 3.16 µM
- TGI [8]: 13.4 µM
- GI50 [9]: 9.4 µM
- TGI [9]: 44.6 µM
- GI50 [10]: 6.49 µM
- TGI [10]: 48.1 µM
- GI50 [11]: 1.95 µM
- TGI [11]: 4.41 µM
- GI50 [12]: 2.8 µM
- TGI [12]: 8.69 µM
- GI50 [13]: 2.71 µM
- TGI [13]: 9.62 µM
- GI50 [14]: 2.64 µM
- TGI [14]: 10.1 µM
- GI50 [15]: 6.88 µM
- TGI [15]: 26.7 µM
- GI50 [16]: 3.72 µM
- TGI [16]: 23.9 µM
- GI50 [17]: 3.39 µM
- TGI [17]: 45.2 µM
- GI50 [18]: 2.13 µM
- TGI [18]: 4.92 µM
- GI50 [19]: 2.59 µM
- TGI [19]: 7.77 µM
- GI50 [20]: 3.15 µM
- TGI [20]: 18.9 µM
- GI50 [21]: 2.14 µM
- TGI [21]: 5.18 µM
- GI50 [22]: 3.25 µM
- TGI [22]: 10 µM
- GI50 [23]: 1.64 µM
- TGI [23]: 4.29 µM
- GI50 [24]: 1.99 µM
- TGI [24]: 6.97 µM
- GI50 [25]: 1.92 µM
- TGI [25]: 5.53 µM
- GI50 [26]: 3.84 µM
- TGI [26]: > 100 µM
- GI50 [27]: 4.38 µM
- TGI [27]: 20.6 µM
- GI50 [28]: 3.1 µM
- TGI [28]: 12.1 µM
- GI50 [29]: 3.18 µM
- TGI [29]: > 100 µM
- GI50 [30]: 3.27 µM
- TGI [30]: 15.2 µM
- GI50 [31]: 12.7 µM
- TGI [31]: 35.4 µM
- GI50 [32]: 2.47 µM
- TGI [32]: 12.6 µM
- GI50 [33]: 2.91 µM
- TGI [33]: > 100 µM
- GI50 [34]: 4.81 µM
- TGI [34]: 53.5 µM
- GI50 [35]: 4.5 µM
- TGI [35]: 68.8 µM
- GI50 [36]: 3.92 µM
- TGI [36]: 23.1 µM
- GI50 [37]: 3.41 µM
- TGI [37]: > 100 µM
- GI50 [38]: 6.12 µM
- TGI [38]: 44.8 µM
- GI50 [39]: 3.46 µM
- TGI [39]: 15.3 µM
- GI50 [40]: 6.2 µM
- TGI [40]: 39.1 µM
- GI50 [41]: 2.69 µM
- TGI [41]: 7.67 µM
- GI50 [42]: 3.6 µM
- TGI [42]: 34.9 µM
- GI50 [43]: 3.41 µM
- TGI [43]: 16.5 µM
- GI50 [44]: 3.41 µM
- TGI [44]: 10.3 µM
- GI50 [45]: 3.78 µM
- TGI [45]: 25.5 µM
- GI50 [46]: 7.01 µM
- TGI [46]: 22 µM
- GI50 [47]: 2.14 µM
- TGI [47]: 4.91 µM
- GI50 [48]: 3.62 µM
- TGI [48]: 31.3 µM
- GI50 [49]: 11.1 µM
- TGI [49]: 46 µM
- GI50 [50]: 1.68 µM
- TGI [50]: 3.64 µM
- GI50 [51]: 6.85 µM
- TGI [51]: 26.5 µM
- GI50 [52]: 2.34 µM
- TGI [52]: > 100 µM
